Measurements from US11203563B2, “Preparation of zinc linolenate, and application of zinc linolenate in preparing anti-helicobacter pylori drug” (NANJING MEDICAL UNIVERSITY, priority 2018, dated 2021).

Assays:
Assay in all cases: MIC by microdilution method, non-Helicobacter pylori bacteria
Format in all cases: cell-based
Parameters in all cases: key: +: Bacterial growth; −: No bacterial growth
Conditions in all cases: 72 h
Bacillus subtilis (168) = tested on: Bacillus subtilis (168)
Protocol: (§1) 2.2 Detection of minimum inhibitory concentration (MIC, 100 µL system) of zinc linolenate for non-Helicobacter pylori bacteria by microdilution method
(§2) (1) Zinc linolenate (2 mg/mL) is prepared.
(§3) (3) Bacterial solution preparation: the non-Helicobacter pylori grown in a log phase on a solid plate is taken to make a bacterial suspension with a BHI culture medium, the absorbance (OD600) is adjusted to 0.3 (1×10^8 CFU/mL), and the bacterial suspension is diluted 100 times to 1×10^6 CFU/mL for use.
(§4) (4) Inoculation of bacterial solution: 10 μL of bacterial solution above is taken and added to the 1-8th wells (the concentration of the bacterial solution per well is about 1.0×10^5 CFU/mL). Culture is performed for 72 h to judge the result. The drug concentrations of the first-seventh wells are 128, 64, 32, 16, 8, 4, and 2 μg/mL, respectively.
(§5) The experiment only makes sense when the bacteria obviously grow in the 8th well, i.e. the positive control well (without antibiotics). When a single drift occurs in the microdilution method, the maximum drug concentration that inhibits bacterial growth should be recorded. If there are multiple drifts, the results should not be reported and the experiment should be repeated. The experiment is repeated 3 times for each drug.

[1] = tested on: Enterococcus faecium (ATCC19434)
Protocol: as §1, §2, §3, §4, §5

Morganella morganii = tested on: Morganella morganii
Protocol: as §1, §2, §3, §4, §5

[2] = tested on: Salmonella typhi (14028s)
Protocol: as §1, §2, §3, §4, §5

[3] = tested on: Pseudomonas aeruginosa (PA01)
Protocol: as §1, §2, §3, §4, §5

[4] = tested on: Proteus mirabilis (YF163006)
Protocol: as §1, §2, §3, §4, §5

CC/C=C\C/C=C\C/C=C\CCCCCCCC(=O)[O-].CC/C=C\C/C=C\C/C=C\CCCCCCCC(=O)[O-].[Zn+2] [zinc linolenate]
Bacterial growth (Bacillus subtilis (168); zinc linolenate 2 μg/ml): + | Bacterial growth (Bacillus subtilis (168); zinc linolenate 4 μg/ml): + | Bacterial growth (Bacillus subtilis (168); zinc linolenate 8 μg/ml): + | Bacterial growth (Bacillus subtilis (168); zinc linolenate 16 μg/ml): + | Bacterial growth (Bacillus subtilis (168); zinc linolenate 32 μg/ml): + | Bacterial growth (Bacillus subtilis (168); zinc linolenate 64 μg/ml): + | Bacterial growth (Bacillus subtilis (168); zinc linolenate 128 μg/ml): + | Bacterial growth ([1]; zinc linolenate 2 μg/ml): + | Bacterial growth ([1]; zinc linolenate 4 μg/ml): + | Bacterial growth ([1]; zinc linolenate 8 μg/ml): + | Bacterial growth ([1]; zinc linolenate 16 μg/ml): + | Bacterial growth ([1]; zinc linolenate 32 μg/ml): + | Bacterial growth ([1]; zinc linolenate 64 μg/ml): + | Bacterial growth ([1]; zinc linolenate 128 μg/ml): + | Bacterial growth (Morganella morganii; zinc linolenate 2 μg/ml): + | Bacterial growth (Morganella morganii; zinc linolenate 4 μg/ml): + | Bacterial growth (Morganella morganii; zinc linolenate 8 μg/ml): + | Bacterial growth (Morganella morganii; zinc linolenate 16 μg/ml): + | Bacterial growth (Morganella morganii; zinc linolenate 32 μg/ml): + | Bacterial growth (Morganella morganii; zinc linolenate 64 μg/ml): + | Bacterial growth (Morganella morganii; zinc linolenate 128 μg/ml): − | Bacterial growth ([2]; zinc linolenate 2 μg/ml): + | Bacterial growth ([2]; zinc linolenate 4 μg/ml): + | Bacterial growth ([2]; zinc linolenate 8 μg/ml): + | Bacterial growth ([2]; zinc linolenate 16 μg/ml): + | Bacterial growth ([2]; zinc linolenate 32 μg/ml): + | Bacterial growth ([2]; zinc linolenate 64 μg/ml): + | Bacterial growth ([2]; zinc linolenate 128 μg/ml): + | Bacterial growth ([3]; zinc linolenate 2 μg/ml): + | Bacterial growth ([3]; zinc linolenate 4 μg/ml): + | Bacterial growth ([3]; zinc linolenate 8 μg/ml): + | Bacterial growth ([3]; zinc linolenate 16 μg/ml): + | Bacterial growth ([3]; zinc linolenate 32 μg/ml): + | Bacterial growth ([3]; zinc linolenate 64 μg/ml): + | Bacterial growth ([3]; zinc linolenate 128 μg/ml): + | Bacterial growth ([4]; zinc linolenate 2 μg/ml): + | Bacterial growth ([4]; zinc linolenate 4 μg/ml): + | Bacterial growth ([4]; zinc linolenate 8 μg/ml): + | Bacterial growth ([4]; zinc linolenate 16 μg/ml): + | Bacterial growth ([4]; zinc linolenate 32 μg/ml): + | Bacterial growth ([4]; zinc linolenate 64 μg/ml): + | Bacterial growth ([4]; zinc linolenate 128 μg/ml): +
